Earlier results as cited in PMC3925743 (Journal of controlled release : official journal of the …, 2013).

System: prostate cancer LNCaP cells

With protamine as the substance, how does the “delivery of siRNA into cells” value read?
Its value is “cannot deliver siRNA”.
